Source: patent publication US9278968B2, “Imidazopyridine compounds” (ASTELLAS PHARMA INC., priority 2012, dated 2016)

Tests used:
[1] = system: hind limb blood flow in rats anesthetized with pentobarbital; assay: Blood flow increasing action in vivo (hind limb blood flow, anesthetized rats); parameters: species or system Wistar male rats; settings: oral, 2 hours after administration, effective when blood flow rate 130% or more of solvent group
Experimental: The hind limb blood flow increasing action in rats anesthetized with pentobarbital was confirmed by the following test method.
Wistar male rats, 11- to 14-week (Japan SLC, Inc.) were used. An administration liquid was prepared by adding N,N-dimethyl formamide, Polyethylene Glycol 400, TWEEN 80, a 0.5% methyl cellulose aqueous solution, a 0.5 M aqueous sodium hydrogen carbonate solution, and 0.1 M hydrochloric acid to the test compound and dissolving the Example compound in an appropriate manner depending on the compound. The prepared administration liquid was orally administered, and 2 hours later, the hind limb blood flow increasing action was evaluated under anesthesia with intraperitoneally administration of 60 mg/kg of pentobarbital The hind limb blood flow was measured using a laser blood flow imaging device (PIM II Integral). By taking the average blood flow rate of a group with the administration of a solvent as 100%, the compound was evaluated to be effective when the blood flow rate was 130% or more by the administration of the compound.

[2] = biological target: human purified sGC (heterodimer of sGCα1 and sGCβ1) (Homo sapiens (Human), UniProt Q02108+Q02153); assay: sGC activation test (cGMP produced, HTRF); assay type: biochemical; settings: for EC50: maximum activity of Preparation Example 200 compound (maximum 100 μM) taken as 100%, with SNP, read-out: EC50 (concentration giving 50% of maximum activity)
Experimental: The activity of sGC was evaluated by measuring the amount of cGMP produced by human purified sGC.
Using an sGCα 1 gene (NCBI accession No. BC028384.2) and an sGCβ1 gene (NCBI accession No. BC047620.1), an N-terminal FLAG tag-fused sGCα1 and an sGCβ1 expression baculovirus were prepared. These viruses were transfected into insect cells Sf9 (Cat. No. 11496-015, Gibco) to express a protein. From the cell lysates of the insect cells, heterodimers of the N-terminal FLAG tag-fused sGCα1 and sGCβ1 were purified with an M2 Affinity Gel (Sigma-Aldrich, Inc.) to obtain a human sGC.
An Example compound was dissolved in DMSO and diluted 20-fold with ultrapure water. 2 μL of the diluted Example compound solution (maximum concentration of 100 μM), 2 μL of a substrate solution [0.5 μM triethanolamine buffer solution, 0.03 μM dithiothreitol, 0.01 μM GTP, 0.04 μM MgCl2, and 0.03 μM sodium nitroprusside (SNP)], and 6 μL of a human enzyme suspension were added to 384-well plates (manufactured by Greiner Bio-One), and incubated at room temperature for one hour. The measurement of the amount of cGMP was carried out, using an HTRF reagent (Cisbio).
The sGC activation action of the Example compound was calculated as an Example compound concentration which gives 50% of a maximum activity (EC50), in which the maximum activity by the addition of a compound shown in Preparation Example 200, 8-(cyclohexylmethoxy)-N-[(1R)-2-hydroxy-1-phenylethyl]-2-methylimidazo[1,2-a]pyridine-3-carboxamide hydrochloride (maximum 100 μM), is taken as 100%. Further, the maximum activity of sGC with the addition of 8-(cyclohexylmethoxy)-N-[(1R)-2-hydroxy-1-phenylethyl]-2-methylimidazo[1,2-a]pyridine-3-carboxamide hydrochloride is 10-fold or more relative to the sGC activation without the addition of the compound, and it is recognized that the compound has a good sGC activating action. […] The test results of some Example compounds that are the compounds of the formula (I) of the present invention are shown below. Further, in Tables, Ex. represents Example number.

Chain of human purified sGC (heterodimer of sGCα1 and sGCβ1) (Q02108 whole entry): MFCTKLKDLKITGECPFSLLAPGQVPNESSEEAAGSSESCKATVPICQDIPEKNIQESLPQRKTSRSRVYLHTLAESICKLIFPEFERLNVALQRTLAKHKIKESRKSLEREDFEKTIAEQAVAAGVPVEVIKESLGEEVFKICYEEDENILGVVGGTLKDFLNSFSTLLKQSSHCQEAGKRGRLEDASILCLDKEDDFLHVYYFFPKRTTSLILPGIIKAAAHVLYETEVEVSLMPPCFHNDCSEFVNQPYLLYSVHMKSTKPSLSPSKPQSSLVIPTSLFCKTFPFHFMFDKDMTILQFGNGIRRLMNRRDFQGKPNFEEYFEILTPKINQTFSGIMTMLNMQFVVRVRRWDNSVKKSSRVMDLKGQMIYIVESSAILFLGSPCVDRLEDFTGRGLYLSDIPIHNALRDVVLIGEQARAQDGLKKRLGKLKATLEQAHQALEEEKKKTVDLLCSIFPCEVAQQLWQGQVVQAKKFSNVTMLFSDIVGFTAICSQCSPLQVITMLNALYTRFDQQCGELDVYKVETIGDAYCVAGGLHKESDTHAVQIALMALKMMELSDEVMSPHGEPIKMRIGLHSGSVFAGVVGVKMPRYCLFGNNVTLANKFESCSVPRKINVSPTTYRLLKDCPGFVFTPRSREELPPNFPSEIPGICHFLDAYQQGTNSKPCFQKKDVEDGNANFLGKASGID
Chain of human purified sGC (heterodimer of sGCα1 and sGCβ1) (Q02153 whole entry): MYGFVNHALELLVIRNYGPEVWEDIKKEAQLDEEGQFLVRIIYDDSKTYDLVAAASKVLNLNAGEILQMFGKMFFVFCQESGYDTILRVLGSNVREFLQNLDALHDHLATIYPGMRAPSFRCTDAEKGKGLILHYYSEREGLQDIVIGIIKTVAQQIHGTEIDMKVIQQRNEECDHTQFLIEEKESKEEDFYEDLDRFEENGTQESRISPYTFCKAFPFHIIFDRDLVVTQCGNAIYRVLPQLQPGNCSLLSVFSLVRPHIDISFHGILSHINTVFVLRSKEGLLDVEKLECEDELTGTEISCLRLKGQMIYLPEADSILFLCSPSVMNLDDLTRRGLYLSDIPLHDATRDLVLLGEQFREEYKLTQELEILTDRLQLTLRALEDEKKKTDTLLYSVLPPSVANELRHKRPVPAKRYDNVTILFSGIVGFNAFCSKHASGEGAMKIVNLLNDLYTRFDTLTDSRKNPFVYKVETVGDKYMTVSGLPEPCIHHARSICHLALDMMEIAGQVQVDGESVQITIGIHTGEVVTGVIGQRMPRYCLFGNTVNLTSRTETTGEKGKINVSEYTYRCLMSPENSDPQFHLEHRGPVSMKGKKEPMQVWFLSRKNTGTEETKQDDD

| EC50 [2] [µM] | Structure (SMILES) | hind limb blood flow increasing action ([1]; 1 mg/kg) | other results |
| --- | --- | --- | --- |
| 1.5 | Cc1nc2c(OCc3c(F)cccc3F)cccn2c1C(=O)N[C@@](C)(CO)c1ccc(CO)cc1 (stereo in doubt) [Example 107a, 8-[(2,6-difluorobenzyl)oxy]-N-{1-hydroxy-2-[4-(hydroxymethyl)phenyl]propan-2-yl}-2-methylimidazo[1,2-a]pyridine-3-carboxamide] |  | hind limb blood flow increasing action ([1]; 3 mg/kg): exhibited a blood flow increasing action |
| 4.6 | Cc1nc2c(OCc3c(F)cccc3F)cccn2c1C(=O)N[C@@](C)(CO)c1nnn(C)n1 (stereo in doubt) [Example 108a, 8-[(2,6-difluorobenzyl)oxy]-N-[1-hydroxy-2-(2-methyl-2H-tetrazol-5-yl)propan-2-yl]-2-methylimidazo[1,2-a]pyridine-3-carboxamide] |  | hind limb blood flow increasing action ([1]; 0.3 mg/kg): exhibited a blood flow increasing action |
| 5.5 | CCc1nnc(C(C)(CO)NC(=O)c2c(C)nc3c(OCc4c(F)cccc4F)cccn23)o1 (stereo not shown) [Example 1, 8-[(2,6-difluorobenzyl)oxy]-N-[2-(5-ethyl-1,3,4-oxadiazol-2-yl)-1-hydroxypropan-2-yl]-2-methylimidazo[1,2-a]pyridine-3-carboxamide] | exhibited a blood flow increasing action |  |
| 1.7 | Cc1nc2c(OCc3c(F)cccc3F)cccn2c1C(=O)NC(C)(CO)c1nnn(C(F)F)n1 (stereo not shown) [Example 6, 8-[(2,6-difluorobenzyl)oxy]-N-{2-[2-(difluoromethyl)-2H-tetrazol-5-yl]-1-hydroxypropan-2-yl}-2-methylimidazo[1,2-a]pyridine-3-carboxamide] |  | hind limb blood flow increasing action ([1]; 0.1 mg/kg): exhibited a blood flow increasing action |
| 9.6 | Cc1nc2c(OCc3c(F)cccc3F)cccn2c1C(=O)NC(C)(CO)c1nnn(C)n1 (stereo not shown) [Example 7a, 8-[(2,6-difluorobenzyl)oxy]-N-[1-hydroxy-2-(2-methyl-2H-tetrazol-5-yl)propan-2-yl]-2-methylimidazo[1,2-a]pyridine-3-carboxamide] |  | hind limb blood flow increasing action ([1]; 3 mg/kg): exhibited a blood flow increasing action |
| 1.3 | Cc1nc2c(OCc3c(F)cccc3F)cccn2c1C(=O)N[C@@](C)(CO)c1ccccn1 [Example 11] | exhibited a blood flow increasing action |  |
| 1.6 | Cc1nc2c(OCc3c(F)cccc3F)cccn2c1C(=O)N[C@@](C)(CO)c1ccccc1F [Example 18] | exhibited a blood flow increasing action |  |
| 3.6 | Cc1nc2c(OCc3c(F)cccc3F)cccn2c1C(=O)N[C@@](C)(CO)c1ncc(CO)s1 [Example 19] | exhibited a blood flow increasing action |  |
| 4.9 | Cc1nc2c(OCc3c(F)cccc3F)cccn2c1C(=O)NCc1ccccc1[C@@H](O)[C@@H](C)O [Example 31] |  | hind limb blood flow increasing action ([1]; 3 mg/kg): exhibited a blood flow increasing action |
| 6.4 | Cc1nnc(C(C)(CO)NC(=O)c2c(C)nc3c(OCc4c(F)cccc4F)cccn23)o1 (stereo not shown) [Example 35] |  | hind limb blood flow increasing action ([1]; 0.3 mg/kg): exhibited a blood flow increasing action |
| 11 | Cc1nc2c(OCc3c(F)cccc3F)cccn2c1C(=O)NC(C)(CO)c1ccn(C)n1 (stereo not shown) [Example 36] | exhibited a blood flow increasing action |  |
| 7.1 | Cc1nnc(C(C)(CO)NC(=O)c2c(C)nc3c(OCc4c(F)cccc4F)cccn23)s1 (stereo not shown) [Example 37] | exhibited a blood flow increasing action |  |
| 2.5 | Cc1cnc(C(C)(CO)NC(=O)c2c(C)nc3c(OCc4c(F)cccc4F)cccn23)o1 (stereo not shown) [Example 38] | exhibited a blood flow increasing action |  |
| 4.6 | Cc1noc(C(C)(CO)NC(=O)c2c(C)nc3c(OCc4c(F)cccc4F)cccn23)n1 (stereo not shown) [Example 39] | exhibited a blood flow increasing action |  |
| 3.8 | Cc1csc(C(C)(CO)NC(=O)c2c(C)nc3c(OCc4c(F)cccc4F)cccn23)n1 (stereo not shown) [Example 40] |  | hind limb blood flow increasing action ([1]; 3 mg/kg): exhibited a blood flow increasing action |
| 5.3 | Cc1nc(C(C)(CO)NC(=O)c2c(C)nc3c(OCc4c(F)cccc4F)cccn23)no1 (stereo not shown) [Example 41] |  | hind limb blood flow increasing action ([1]; 0.3 mg/kg): exhibited a blood flow increasing action |
| 2.2 | Cc1nc2c(OCc3c(F)cccc3F)cccn2c1C(=O)NC(C)(CO)c1ccc(F)c(CO)c1 (stereo not shown) [Example 52] |  | hind limb blood flow increasing action ([1]; 3 mg/kg): exhibited a blood flow increasing action |

| EC50 [2] [µM] | Structure (SMILES) | hind limb blood flow increasing action ([1]; 1 mg/kg) | other results |
| --- | --- | --- | --- |
| 24 | Cc1nc2c(OCc3c(F)cccc3F)cccn2c1C(=O)N[C@]1(c2ccccn2)C[C@@H](O)[C@@H](O)C1 [Example 67] |  | hind limb blood flow increasing action ([1]; 3 mg/kg): exhibited a blood flow increasing action |
| 4.6 | Cc1cnc([C@@]2(NC(=O)c3c(C)nc4c(OCc5c(F)cccc5F)cccn34)C[C@@H](O)[C@@H](O)C2)s1 [Example 69] |  | hind limb blood flow increasing action ([1]; 3 mg/kg): exhibited a blood flow increasing action |
| 3.8 | Cc1nc2c(OCc3c(F)cccc3F)cccn2c1C(=O)NC(CO)(CO)c1ccc(Cl)cn1 [Example 70] | exhibited a blood flow increasing action |  |
| 2.7 | Cc1cnc(C(CO)(CO)NC(=O)c2c(C)nc3c(OCc4c(F)cccc4F)cccn23)s1 [Example 72] | exhibited a blood flow increasing action |  |
| 20 | Cc1nc2c(OCC3CCCCC3)cccn2c1C(=O)NC(CO)(CO)c1nnc(C2CC2)o1 [Example 100] |  |  |
| 26 | CCn1cc(C(CO)(CO)NC(=O)c2c(C)nc3c(OCc4c(F)cccc4F)cccn23)cn1 [Example 101] |  |  |
| 2.6 | Cc1nc2c(OCC3CCCCC3)cccn2c1C(=O)N[C@@](C)(CO)c1cccc(-c2nnn(C)n2)c1 [Example 102] |  |  |
| 6.1 | Cc1nc2c(OCc3c(F)cccc3F)cccn2c1C(=O)NC(C)(CO)c1nnn(CC2CC2)n1 (stereo not shown) [Example 103] |  |  |
| 7.5 | Cc1nc2c(OCC3CCCCC3)cccn2c1C(=O)NC(C)(CO)c1nnn(CCO)n1 (stereo not shown) [Example 104] |  |  |
| 11 | Cc1nc2c(OCc3c(F)cccc3F)cccn2c1C(=O)NC(C)(CO)c1nnn(CC(C)(C)O)n1 (stereo not shown) [Example 105, 8-[(2,6-difluorobenzyl)oxy]-N-{1-hydroxy-2-[2-(2-hydroxy-2-methylpropyl)-2H-tetrazol-5-yl]propan-2-yl}-2-methylimidazo[1,2-a]pyridine-3-carboxamide] |  |  |
| 9.1 | Cc1nc2c(OCc3c(F)cccc3F)cccn2c1C(=O)NC(C)(CO)c1nnn(CC(C)O)n1 (stereo not shown) [Example 106] |  |  |
| 23 | Cc1nn(C)cc1C(CO)(CO)NC(=O)c1c(C)nc2c(OCc3c(F)cccc3F)cccn12 [Example 109] |  |  |
| 12 | Cc1nc2c(OCc3c(F)cccc3F)cccn2c1C(=O)N[C@@H](CO)c1nnn(C(C)C)n1 [Example 110] |  |  |
| 0.56 | Cc1nc2c(OCC3CCCCC3)cccn2c1C(=O)N[C@@](C)(CO)c1cccc(-c2nn[nH]n2)c1 [Example 111] |  |  |
|  | Cc1nc2c(OCC3CCCCC3)cccn2c1C(=O)N[C@@H](CO)c1ccccc1.Cl [Preparation Example 200, 8-(cyclohexylmethoxy)-N-[(1R)-2-hydroxy-1-phenylethyl]-2-methylimidazo[1,2-a]pyridine-3-carboxamide hydrochloride, reference compound] |  | maximum activity of sGC relative to sGC activation without the addition of the compound ([2]; maximum 100 μM): ≥ 10 fold |
| 50 | OCc1ccc(-c2nn(Cc3ccccc3)c3ccccc23)o1 [YC-1, [5-(1-benzyl-1H-indazol-3-yl)-2-furyl]methanol, reference compound] |  | maximum activity relative to maximum activity of Preparation Example 200 compound ([2]; maximum activity of Preparation Example 200 compound = 100%): 52% |
